The values that follow come from patent US12448433B2, “Human ApoB100 epitopes, methods and uses for modulating inflammatory responses, and treating adverse cardiovascular events, disease and atherosclerosis” (LA JOLLA INSTITUTE FOR ALLERGY AND IMMUNOLOGY, priority 2015, dated 2025).

No end group written: not given here.

One assay addresses DPB1*05:01. Briefly: Peptide binding to HLA-DP allele, competition assay. On the set-up: species or system human. From the text:
(§1) Peptide binding to MHC-II requires anchor residues in certain positions and thus can be predicted using computer algorithms. Affinity can be measured experimentally using a competition assay (1). Both are excellent screening tools. However, affinity must be measured separately for each MHC-II allele. Humans express molecules encoded in four different MHC-II loci, denominated HLA-DRB1, DRB3/4/5, DP and DQ. Allelic variation is large, and most people are heterozygous at each locus, thus expressing up to 8 relevant MHC-II alleles. CD4 T cell responses strictly require that the antigenic peptide binds to the relevant MHC-II.
(§2) To identify peptides that could potentially be used in human patients, 30 peptides were screened for binding to 26 HLA alleles by competition assay.

Another assay deals with DPB1*04:02. The description is as above. Also on record: species or system human.
Source text: as §1, §2

The target of another assay is T1, DPB1*04:01 (Homo sapiens, UniProt P04440).
T1 sequence (P04440 30-258): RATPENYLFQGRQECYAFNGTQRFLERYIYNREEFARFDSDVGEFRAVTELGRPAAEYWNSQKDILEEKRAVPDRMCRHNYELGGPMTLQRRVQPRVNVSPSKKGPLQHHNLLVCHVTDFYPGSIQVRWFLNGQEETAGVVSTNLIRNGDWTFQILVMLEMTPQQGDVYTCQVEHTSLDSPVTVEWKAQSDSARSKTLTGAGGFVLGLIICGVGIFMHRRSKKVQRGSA
T1 sequence (P20036 29-260 partner): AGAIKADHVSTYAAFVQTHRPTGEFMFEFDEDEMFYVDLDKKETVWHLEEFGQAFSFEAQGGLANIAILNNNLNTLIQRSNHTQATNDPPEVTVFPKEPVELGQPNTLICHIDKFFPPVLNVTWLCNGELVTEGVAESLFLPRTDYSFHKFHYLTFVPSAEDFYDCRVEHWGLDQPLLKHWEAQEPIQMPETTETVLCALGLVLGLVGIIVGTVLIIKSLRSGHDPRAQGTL
The assay is described as above.
Source text: as §1, §2

For another assay, the target named is DQB1*06:02. Briefly: Peptide binding to HLA-DQ allele, competition assay. On the set-up: species or system human.
Source text: as §1, §2

The next assay has as its target DPB1*14:01. The experiment in a line: Peptide binding to HLA-DP allele, competition assay. On the set-up: species or system human.
Source text: as §1, §2

The target of a further assay is DQB1*05:01. Briefly: Peptide binding to HLA-DQ allele, competition assay. Also on record: species or system human.
Source text: as §1, §2

The next assay addresses DPB1*02:01. Briefly: Peptide binding to HLA-DP allele, competition assay. On the set-up: species or system human.
Source text: as §1, §2

As for `CC(C)C[C@H](NC(=O)[C@H](CC(C)C)NC(=O)[C@H](CC(C)C)NC(=O)[C@H](CC(C)C)NC(=O)[C@H](C)NC(=O)[C@@H]1CCCN1C(=O)[C@H](CC(C)C)NC(=O)[C@H](C)NC(=O)[C@H](CC(C)C)NC(=O)[C@H](CC(C)C)NC(=O)[C@H](C)NC(=O)[C@H](CC(C)C)NC(=O)[C@H](CC(C)C)NC(=O)[C@H](C)NC(=O)[C@@H]1CCCN1)C(=O)O` [Peptide 3563.001], the IC50 (commonly the concentration at which inhibition is half-maximal) amounted to 6.56 µM at DPB1*05:01, 1.63 µM on DPB1*04:02, 14 µM on DPB1*04:01 and 24.2 µM at DQB1*06:02.
Consider `CC[C@H](C)[C@H](NC(=O)[C@H](CC(C)C)NC(=O)[C@@H](N)CC(C)C)C(=O)N[C@@H](CC(=O)O)C(=O)N[C@H](C(=O)N[C@H](C(=O)N[C@H](C(=O)N[C@@H](Cc1ccc(O)cc1)C(=O)N[C@@H](CC(C)C)C(=O)N[C@H](C(=O)N[C@@H](C)C(=O)N[C@@H](CC(C)C)C(=O)N[C@H](C(=O)N1CCC[C@H]1C(=O)N[C@@H](CCC(=O)O)C(=O)O)[C@@H](C)CC)C(C)C)[C@@H](C)O)C(C)C)C(C)C` [Peptide 3563.0002], for which the values for the half-maximal inhibitory concentration (IC50) at DPB1*14:01, at DQB1*05:01 and at DQB1*06:02 were 8.57 µM, 3.62 µM and 38.8 µM, respectively.
In the case of `CC[C@H](C)[C@H](NC(=O)[C@H](Cc1ccc(O)cc1)NC(=O)[C@H](Cc1c[nH]cn1)NC(=O)[C@H](CC(C)C)NC(=O)[C@@H](N)Cc1ccccc1)C(=O)N[C@@H](Cc1ccccc1)C(=O)N[C@@H](CCSC)C(=O)N[C@@H](CCC(=O)O)C(=O)N[C@@H](CC(N)=O)C(=O)N[C@@H](C)C(=O)N[C@@H](Cc1ccccc1)C(=O)N[C@@H](CCC(=O)O)C(=O)N[C@@H](CC(C)C)C(=O)N1CCC[C@H]1C(=O)N[C@H](C(=O)O)[C@@H](C)O` [Peptide 3563.0006], the IC50 worked out at 0.04 µM on DPB1*02:01, 0.0044 µM at DPB1*04:02, 0.032 µM at DPB1*04:01 and 0.039 µM on DQB1*05:01.
As for `CC[C@H](C)[C@H](NC(=O)CNC(=O)[C@H](CCSC)NC(=O)[C@H](CC(N)=O)NC(=O)[C@@H](NC(=O)[C@@H](NC(=O)[C@H](Cc1ccccc1)NC(=O)[C@H](CCC(=O)O)NC(=O)[C@@H](N)C(C)C)C(C)C)[C@@H](C)O)C(=O)N[C@H](C(=O)N[C@H](C(=O)N1CCC[C@H]1C(=O)N[C@@H](CC(=O)O)C(=O)N[C@@H](Cc1ccccc1)C(=O)N[C@@H](C)C(=O)O)[C@@H](C)CC)[C@@H](C)CC` [Peptide 3563.0007], the IC50 on DPB1*05:01 was 6.69 µM; at DPB1*14:01, 15.6 µM; on DPB1*02:01, 0.012 µM; at DQB1*05:01, 0.228 µM; on DQB1*06:02, 8.4 µM.
Turning to `CC(C)C[C@H](NC(=O)[C@H](CC(C)C)NC(=O)[C@H](Cc1ccccc1)NC(=O)[C@H](CCCCN)NC(=O)[C@H](CO)NC(=O)[C@H](Cc1ccc(O)cc1)NC(=O)[C@H](CC(C)C)NC(=O)[C@@H](N)CCC(N)=O)C(=O)N[C@@H](CCCCN)C(=O)N[C@@H](C)C(=O)N[C@@H](CCC(=O)O)C(=O)N1CCC[C@H]1C(=O)N[C@@H](CC(C)C)C(=O)N[C@@H](C)C(=O)N[C@@H](Cc1ccccc1)C(=O)O` [Peptide 3563.0011], the results for the 50% inhibitory concentration (IC50) on DPB1*05:01, on DPB1*14:01 and on DQB1*05:01 were 0.083 µM, 0.051 µM and 0.588 µM, respectively.
Take `CC[C@H](C)[C@H](NC(=O)[C@H](CCC(=O)O)NC(=O)[C@H](CC(=O)O)NC(=O)[C@@H](NC(=O)[C@@H](NC(=O)[C@H](CC(N)=O)NC(=O)[C@H](C)NC(=O)[C@@H](NC(=O)[C@H](C)NC(=O)[C@@H](NC(=O)[C@H](CCCCN)NC(=O)[C@H](CC(C)C)NC(=O)[C@H](CC(=O)O)NC(=O)[C@H](Cc1c[nH]cn1)NC(=O)[C@@H](N)CC(C)C)[C@@H](C)CC)[C@@H](C)CC)[C@@H](C)CC)[C@@H](C)CC)C(=O)O` [Peptide 3563.0013]: the half-inhibitory concentration (IC50) worked out at 6.52 µM on DPB1*05:01, 0.691 µM at DQB1*05:01 and 1.83 µM on DQB1*06:02.
As to `CC(C)C[C@H](NC(=O)[C@H](C)NC(=O)[C@H](Cc1ccccc1)NC(=O)[C@H](CO)NC(=O)[C@H](CO)NC(=O)[C@@H](NC(=O)[C@H](CCCNC(=N)N)NC(=O)[C@H](CC(C)C)NC(=O)[C@H](CCCCN)NC(=O)[C@H](CCCCN)NC(=O)[C@@H](N)Cc1ccc(O)cc1)[C@@H](C)O)C(=O)N[C@@H](CC(N)=O)C(=O)N[C@@H](CC(C)C)C(=O)N1CCC[C@H]1C(=O)N[C@H](C(=O)O)[C@@H](C)O` [Peptide 3563.0022], the half-inhibitory concentration (IC50) on DPB1*05:01 is 0.221 µM; at DPB1*14:01, 0.015 µM; on DPB1*02:01, 0.0033 µM; at DPB1*04:02 it was 0.067 µM; at DPB1*04:01 it was 0.0021 µM; on DQB1*06:02 it was 2.65 µM.
Take `CC[C@H](C)[C@H](N)C(=O)N[C@@H](CC(C)C)C(=O)N[C@@H](Cc1ccccc1)C(=O)N[C@@H](CO)C(=O)N[C@@H](Cc1ccc(O)cc1)C(=O)N[C@@H](Cc1ccccc1)C(=O)N[C@@H](CCC(N)=O)C(=O)N[C@@H](CC(=O)O)C(=O)N[C@@H](CC(C)C)C(=O)N[C@H](C(=O)N[C@H](C(=O)N[C@H](C(=O)N[C@@H](CC(C)C)C(=O)N1CCC[C@H]1C(=O)N[C@@H](Cc1ccccc1)C(=O)O)[C@@H](C)O)[C@@H](C)CC)C(C)C` [Peptide 3563.0023]: the half-inhibitory concentration (IC50) at DPB1*05:01 stood at 3.82 µM; at DQB1*05:01 it was 0.019 µM; on DQB1*06:02 it was 12.2 µM.
As to `CC[C@H](C)[C@H](NC(=O)[C@H](CC(C)C)NC(=O)[C@H](Cc1ccc(O)cc1)NC(=O)[C@@H](NC(=O)[C@H](Cc1ccccc1)NC(=O)[C@@H](N)CCCCN)[C@@H](C)O)C(=O)N[C@@H](CC(N)=O)C(=O)N[C@@H](Cc1ccc(O)cc1)C(=O)N[C@H](C(=O)N[C@@H](CCC(N)=O)C(=O)N[C@@H](CC(=O)O)C(=O)N[C@@H](CCC(=O)O)C(=O)N[C@H](C(=O)N[C@@H](CC(N)=O)C(=O)N[C@H](C(=O)O)[C@@H](C)O)[C@@H](C)CC)[C@@H](C)CC` [Peptide 3563.0025], the IC50 at DPB1*14:01 was found to be 13.7 µM; at DQB1*05:01, 0.013 µM.
In the case of `CC[C@H](C)[C@H](NC(=O)[C@H](CCC(=O)O)NC(=O)[C@@H](N)CC(=O)O)C(=O)N[C@@H](CC(N)=O)C(=O)N[C@H](C(=O)N[C@H](C(=O)N[C@@H](Cc1ccccc1)C(=O)N[C@@H](CO)C(=O)N[C@@H](CC(=O)O)C(=O)N[C@@H](Cc1ccc(O)cc1)C(=O)N[C@H](C(=O)N1CCC[C@H]1C(=O)N[C@@H](Cc1ccc(O)cc1)C(=O)N[C@H](C(=O)N[C@@H](Cc1ccccc1)C(=O)O)C(C)C)[C@@H](C)CC)[C@@H](C)CC)[C@@H](C)O` [Peptide 3563.0026], the IC50 at DPB1*05:01 was 6.9 µM; at DPB1*14:01, 15.2 µM; at DQB1*06:02, 4.55 µM.
Turning to `CC[C@H](C)[C@H](NC(=O)[C@H](Cc1ccc(O)cc1)NC(=O)[C@H](CCC(N)=O)NC(=O)[C@H](Cc1c[nH]cn1)NC(=O)[C@@H](NC(=O)[C@@H](N)CCC(N)=O)[C@@H](C)CC)C(=O)N[C@@H](CCSC)C(=O)N[C@@H](C)C(=O)N[C@@H](CC(C)C)C(=O)N[C@@H](CCCNC(=N)N)C(=O)N[C@@H](CCC(=O)O)C(=O)N[C@@H](CCC(=O)O)C(=O)N[C@@H](Cc1ccc(O)cc1)C(=O)N[C@@H](Cc1ccccc1)C(=O)N[C@@H](CC(=O)O)C(=O)O` [Peptide 3563.0027], the IC50 stood at 0.122 µM on DPB1*05:01; 1.82 µM on DPB1*14:01; 0.08 µM on DPB1*02:01; 0.051 µM at DPB1*04:02; 0.817 µM at DPB1*04:01; 0.897 µM at DQB1*06:02.
Take `CC[C@H](C)[C@H](N)C(=O)N[C@@H](CC(=O)O)C(=O)N[C@@H](CC(C)C)C(=O)N[C@@H](CO)C(=O)N[C@H](C(=O)N[C@@H](CCC(N)=O)C(=O)N[C@@H](CC(N)=O)C(=O)N[C@@H](Cc1ccc(O)cc1)C(=O)N[C@@H](Cc1c[nH]cn1)C(=O)N[C@H](C(=O)N[C@@H](Cc1ccccc1)C(=O)N[C@@H](CC(C)C)C(=O)N[C@H](C(=O)N[C@@H](Cc1ccc(O)cc1)C(=O)N[C@H](C(=O)O)[C@@H](C)CC)[C@@H](C)CC)[C@@H](C)O)[C@@H](C)CC` [Peptide 3563.0029]: the half-inhibitory concentration (IC50) at DPB1*05:01 was determined as 9.16 µM; at DPB1*02:01 it was 23.2 µM; on DPB1*04:02 it was 15.6 µM; on DPB1*04:01, 25 µM.
As to LSQLTYMIQFDQYI [Peptide 3563.0012], the IC50 at DPB1*05:01 came out at 4.12 µM; at DPB1*02:01, 0.576 µM; at DPB1*04:02 it was 0.622 µM; on DQB1*05:01, 0.028 µM; at DQB1*06:02, 43.1 µM.
On to TLTAFGFASADLLEI [Peptide 3563.0005], for which the results for the 50% inhibitory concentration (IC50) on DPB1*14:01, at DPB1*04:02 and at DQB1*05:01 were 0.847 µM, 0.0053 µM and 0.118 µM, respectively.
